Experiment [1] addresses T1, β1 (caspase-like activity) of 20S proteasome (Homo sapiens, UniProt P28072).
T1 construct: purchased Bioscience (20S Proteasome StressXpress Assay Kit Gold)
Kind of experiment: 20S proteasome inhibitory activity, AMC fluorescent substrate Z-LLE-AMC. In kind it is biochemical.

Experiment [2] addresses β2 (trypsin-like activity) of 20S proteasome (Homo sapiens, UniProt Q99436). Kind of experiment: 20S proteasome inhibitory activity, AMC fluorescent substrate Bz-VGR-AMC.
Experiment [3] concerns the target β5 (chymotrypsin-like activity) of 20S proteasome (Homo sapiens, UniProt P28074). Kind of experiment: 20S proteasome inhibitory activity, AMC fluorescent substrate Suc-LLVY-AMC.
For a further experiment, the target named is T2, E. coli DHFR (Escherichia coli, UniProt P0ABQ4).
T2 construct: expressed in transfected cells; host or cells: HeLa cells, transient transfection with pMIR DsRed-IRES-ecDHFR-HA-GFP
Kind of experiment: Thermal shift assay of affinity with forcedly expressed target protein in HeLa cells. The format is binding. The conditions noted are these: bortezomib alone.

Non-standard residues stand in square brackets, D forms with d. Residues, ends and D or L forms follow the SMILES beside them. Nle = CCCC[C@H](N)C(=O)O

The values below come from US10976306B2, “Protein degradation inducing tag and usage thereof” (Tokyo University of Science Foundation, priority 2015, dated 2021).

As usually defined, the IC50 is the concentration at which inhibition is half-maximal. A low value points to greater potency. `CCCC[C@@H](C=O)NC(=O)[C@H](CC(C)C)NC(=O)[C@H](CC(C)C)NC(C)=O` [ALLN] (Ac-Leu-Leu-[Nle]-aldehyde): the IC50 was 12.4 µM in experiment [1] (20S proteasome 0.1 μg, 30 min preincubation, substrate 100 μM, 1 hour); 5.25 µM in experiment [2]; 1.15 µM in experiment [3]. Moreover, in experiment [1] (FIGS. 4A, 7A, compared with the original proteasome inhibitor alone), the “inhibitory activity against β1” value was “not significantly inhibited”.
Regarding `CC(C)C[C@H](NC(=O)[C@H](Cc1ccccc1)NC(=O)c1cnccn1)B(O)O` [Bortezomib], the “interaction with E. coli DHFR” value at E. coli DHFR is “did not interact with E. coli DHFR”.
`CC(C)C[C@H](NC(=O)CNC(=O)c1cc(Cl)ccc1Cl)B(O)O` [MLN2238] yielded an IC50 in experiment [2] of 6.4 µM.
